Experimental data taken from patent publication US8809314B1, “Cephalosporin compound” (Cubist Pharmaceuticals, Inc., priority 2012, dated 2014).
≈ marks a conversion by molar mass, not a printed value. Where a name gives a salt, the structure may show the parent alone. Blank lines part the entries; values can stand above or below the compound they belong to.

What was measured:
[1] = test system: Pseudomonas aeruginosa (n = 100); experiment: MIC90, expanded MIC panel (Table 4); format: cell-based; settings: 100 Pa strains
Experimental: (§1) II. […] MIC90 values were defined as the concentration required to inhibit growth of 90% of the strains tested. • C. SAR was performed using the following isolates: Sa399 (ATCC43300, MRSA), Sa1721 (NARSA NRS384, MRSA USA 300), Pa44 (ATCC27853), and 4 clinical isolates (Pa2241, Pa2086 (mucoid strain), Pa2694 and Pa2698). • D. The in vitro antibacterial activity of the compound of formula (I) was further evaluated in an expanded MRSA and Pa MIC panel (see Table 4 and FIG. 6).

MRSA #712 [2] = experiment: MIC in MHB by standard CLSI microdilution (Example 4); format: cell-based; settings: Staphylococcus aureus, MRSA
Text: II. Methods • A. Animals: Six week-old, specific pathogen free, female CD-1 mice purchased from Charles River Laboratories (Wilmington, Mass.) were used for all studies after acclimation in Cubist animal facility. All animal procedures were approved by the Cubist Institutional Animal Care and Use Committee. • B. Bacteria and In Vitro Susceptibility Testing: MRSA #712, Pseudomonas aeruginosa #2245 and #2545, and Klebsiella pneumoniae #573 are clinical isolates; Pseudomonas aeruginosa #44 is an ATCC strain (ATCC#27853). MIC was determined in MHB by standard CLSI microdilution. Comparator Antibiotics Used in Animal Studies: Vancomycin hydrochloride USP was purchased from Hospira (Lake Forest, Ill.); ceftazidime hydrate from Sigma; Primaxin (imipenem and cilastatin) from Merck; ceftaroline was synthesized at a CRO. • D. Mouse Septicemia: Mice received lethal inocula of bacteria in 6% hog gastric mucin intraperitoneally (IP), followed by two treatment doses of antibiotics via subcutaneous (SC) administration at 1 and 6 hrs post-inoculation. The survival of animals was recorded daily for 7 days. The antibiotic dose calculated to protect 50% of the mice (PD50) was derived based on probit analysis of percentage survival. • E. Mouse Thigh and Lung Infections: Mice were rendered neutropenic by two IP injections of cyclophosphamide 4 days (150 mg/kg) and 1 day (100 mg/kg) before bacterial inoculation. Thigh or lung infection was induced by an intramuscular injection of 0.2 mL or intranasal inoculation of 0.1 mL inoculum preparation from an overnight bacterial culture into left thigh or nares. Tissues from one group of mice receiving no treatment (No Rx) were harvested at 1 hr for determination of baseline of bacterial burden. The remaining mice received two treatment doses of vehicles or antibiotics given SC at 1 and 6 hrs post-inoculation. Tissues from the treated mice were harvested at ˜24 hrs post-inoculation. Tissue bacterial burdens were quantified by serial dilution and spiral plating of homogenates.

MRSA #712 [3] = experiment: Mouse septicemia (systemic infection), PD50; format: in vivo, Staphylococcus aureus; settings: CD-1 mice, IP inoculum, 2 SC doses at 1 and 6 hrs, 7 day survival
Experimental: (§2) In vivo efficacy of (I) was evaluated against strains of MRSA, and ceftazidime-resistant Pa and Klebsiella pneumonia (Kpn) in mouse septicemia, thigh and lung infections. Septicemia: CD-1 mice received lethal bacterial inocula IP, followed by 2 doses of antibiotics SC at 1 and 6 hrs post-inoculation. Dose calculated to protect 50% of the mice (PD50) was derived based on probit analysis of percentage survival. Thigh and lung infections: Thighs or lungs of neutropenic mice were inoculated with MRSA or Pa. Two treatment doses were given SC at 1 and 6 hrs post-inoculation. Tissues were harvested at ˜24 hrs post-inoculation and bacterial burdens quantified.
II. […] MIC was determined in MHB by standard CLSI microdilution. […] The survival of animals was recorded daily for 7 days. The antibiotic dose calculated to protect 50% of the mice (PD50) was derived based on probit analysis of percentage survival. • E. Mouse Thigh and Lung Infections: Mice were rendered neutropenic by two IP injections of cyclophosphamide 4 days (150 mg/kg) and 1 day (100 mg/kg) before bacterial inoculation. […] Tissue bacterial burdens were quantified by serial dilution and spiral plating of homogenates.
III. […] The dose that protected 50% of the mice (PD50) was calculated by probit analysis based on percentage of mice surviving for 7 days post-inoculation. • C. […]

MRSA (n = 21) = experiment: MIC90, expanded MIC panel (Table 4); format: cell-based; settings: Staphylococcus aureus, MRSA, read-out: MIC90 MRSA (n = 21)
Experimental: as §1

MRSA #712 [4] = experiment: Thigh infection in neutropenic mice; format: in vivo, Staphylococcus aureus
Experimental: as §2
II. Methods • A. Animals: Six week-old, specific pathogen free, female CD-1 mice purchased from Charles River Laboratories (Wilmington, Mass.) were used for all studies after acclimation in Cubist animal facility. All animal procedures were approved by the Cubist Institutional Animal Care and Use Committee. • B. Bacteria and In Vitro Susceptibility Testing: MRSA #712, Pseudomonas aeruginosa #2245 and #2545, and Klebsiella pneumoniae #573 are clinical isolates; Pseudomonas aeruginosa #44 is an ATCC strain (ATCC#27853). MIC was determined in MHB by standard CLSI microdilution. […] The survival of animals was recorded daily for 7 days. The antibiotic dose calculated to protect 50% of the mice (PD50) was derived based on probit analysis of percentage survival. • E. Mouse Thigh and Lung Infections: Mice were rendered neutropenic by two IP injections of cyclophosphamide 4 days (150 mg/kg) and 1 day (100 mg/kg) before bacterial inoculation. […] Tissue bacterial burdens were quantified by serial dilution and spiral plating of homogenates.

Pa44 (WT Pa) = experiment: MIC, broth microdilution (Example 3), Table 1; format: cell-based; settings: Pseudomonas aeruginosa, CAMHB
Experimental: (§3) To prepare for MIC testing, individual colonies were isolated by streaking frozen glycerol material containing Staphylococcus or Pseudomonas spp. onto rich, non-selective, tryptic soy agar containing 5% sheep's blood (TSAB), and incubated at 37° C. for 18-24 hrs.
(§4) On the day of testing, primary cultures were started by scraping off 5-10 colonies from the TSAB plates. The material was suspended in ˜5 mL of cation adjusted Mueller Hinton Broth (CAMHB) in 14 mL culture tubes and incubated at 37° C. with aeration (200 rpm) for ˜2 hrs until the OD600 was ≧0.1.
(§5) Inoculum cultures were prepared by standardizing the primary cultures to OD600=0.1 and then adding 20 μL of the adjusted primary culture per 1 mL CAMHB for Pseudomonas and CAMHB plus 4% NaCl for MRSA so that the final inoculum density was ˜10^5 colony forming units per milliliter. Diluted inoculum cultures were used to inoculate 50 μL per well in 96 well broth microdilution assay plates. 50 μL of CAMHB that contained compound concentrations ranging from 64-0.06 μg/mL in two-fold dilutions was also added to the broth microdilution assay plates for a final volume 100 μL per well, therefore final culture OD600 was approximately 0.001 and the final NaCl concentration for the MRSA strain was 2%.
(§6) Plates were incubated for 18-20 hours at 37° C. with aeration (200 rpm). Following incubation, growth was confirmed visually placing plates over a viewing apparatus (stand with a mirror underneath) and then OD600 was measured using a SpectraMax 340PC384 plate reader (Molecular Devices, Sunnyvale, Calif.). Growth was defined as turbidity that could be detected with the naked eye or achieving minimum OD600 of 0.1. MIC values were defined as the lowest concentration producing no visible turbidity.

Sa399 (MRSA) = experiment: MIC, broth microdilution (Example 3), Table 1; format: cell-based; settings: Staphylococcus aureus, CAMHB, final 2% NaCl
Experimental: as §3, §4, §5, §6

MIC90 [1]: 4 µg/mL (≈ 10.4 µM)
Structure (SMILES): C[C@@H](O)[C@H]1C(=O)N2C(C(=O)O)=C(S[C@@H]3CN[C@H](C(=O)N(C)C)C3)[C@H](C)[C@H]12 [Meropenem]

Structure (SMILES): CN[C@H](CC(C)C)C(=O)N[C@H]1C(=O)N[C@@H](CC(N)=O)C(=O)N[C@H]2C(=O)N[C@H]3C(=O)N[C@H](C(=O)N[C@H](C(=O)O)c4cc(O)cc(O)c4-c4cc3ccc4O)[C@H](O)c3ccc(c(Cl)c3)Oc3cc2cc(c3O[C@@H]2O[C@H](CO)[C@@H](O)[C@H](O)[C@H]2O[C@H]2C[C@](C)(N)[C@H](O)[C@H](C)O2)Oc2ccc(cc2Cl)[C@H]1O [Vancomycin, Vancomycin hydrochloride]
MIC (MRSA #712 [2]): 1 µg/mL | Septicemia PD50 (± SE) (MRSA #712 [3]): 2.0 ± 1.3 mg/kg | MIC90 (MRSA (n = 21)): 1 µg/mL | Thigh (T) ED−2log (MRSA #712 [4]; MRSA #712 thigh infection, neutropenic mice, 2 SC doses at 1 and 6 hrs, 24 h, vs vehicle): >110 (T) mg/kg | reduction in bacterial CFU (MRSA #712 [4]; MRSA #712 thigh, 110 mg/kg SC): ~1.5 log

MIC (Pa44 (WT Pa)): > 16 µg/mL | MIC (Sa399 (MRSA)): 8 to 16 µg/mL (≈ 11.7 to 23.4 µM)
Structure (SMILES): CCCc1ccc(C(=O)NCc2cc[n+](CC3=C(C(=O)[O-])N4C(=O)[C@@H](NC(=O)/C(=N\OC)c5nc(N)sc5Cl)[C@H]4SC3)cc2)cc1 [Compound 1-3]
